5 molecules from patent publication US20260224520A1, “ABC TRANSPORTER EXPRESSION PROMOTING AGENT, CHOLESTEROL EXCRETION PROMOTING AGENT, INFLAMMATORY CYTOKINE PRODUCTION INHIBITING AGENT, ANTI-INFLAMMATORY AGENT, AND ARTERIOSCLEROSIS PREVENTING AGENT” (MEIJI CO., LTD., priority 2022, published 2026) can be followed below.

Each structure is given as a SMILES string. “Also recorded” adds a separate entry of the source.

The subject of test [1] is Human macrophage-like THP-1 cells. Kind of test: Cholesterol excretion promoting activity of fatty acids, fluorometry, 24 h pre-culture with the substance. The settings on record: for cholesterol excretion promoting activity (in words): conclusion from Tables 5A and 8. Format: cell-based. Here is the method: Human macrophage-like THP-1 cells were seeded in a 96-well plate so as to be 2.0×10^5 cells/well, and allowed to differentiate for 72 hours. The medium was then replaced with RPMI 1640 medium containing 0.02% by mass of bovine serum albumin (BSA), 10 to 40 μg/mL (final concentration in the well) of 10-hydroxypalmitic acid (Angene) was added, and the cells were cultured for 24 hours. The medium was then replaced with Dulbecco's Modified Eagle Medium (DMEM) containing 0.02% by mass of BSA and 6 mM of sodium taurocholate, and the medium was recovered after 4 hours. The level of cholesterol excreted from the cells (the cholesterol level in the recovered medium) was measured in the same manner as in Example 1 to evaluate the cholesterol excretion promoting activity of 10-hydroxypalmitic acid (n=3).
In the same manner as in Example 5A, the cholesterol excretion promoting activities of 10-hydroxypalmitic acid and other hydroxypalmitic acids (2-hydroxypalmitic acid (Tokyo Chemical Industry Co., Ltd.), 3-hydroxypalmitic acid (Sigma-Aldrich), 16-hydroxypalmitic acid (Tokyo Chemical Industry Co., Ltd.), and 10-hydroxypalmitic acid), which may be contained in Camembert cheese, as well as palmitic acid to which no hydroxyl group was added (Sigma) were evaluated (n=6 to 11).

For test [2] the test system is unchanged. Kind of test: Cholesterol excretion promoting activity of 10-hydroxypalmitic acid by colorimetry. The test is classed as cell-based. Here is the method: The cholesterol excretion promoting activity of 10-hydroxypalmitic acid was also examined by colorimetry. Specifically, human macrophage-like THP-1 cells were seeded in a 6-well plate so as to be 4.0×10^6 cells/well, and allowed to differentiate for 72 hours. The medium was then replaced with RPMI 1640 medium containing 0.02% by mass of bovine serum albumin (BSA), 20 μg/mL (final concentration in the well) of 10-hydroxypalmitic acid (Angene) was added, and the cells were cultured for 24 hours and then recovered. Lipids were then extracted using methanol and chloroform, and the level of cholesterol excreted from the cells (the cholesterol level in the recovered medium) was measured using a free cholesterol assay kit (Fujifilm Wako Pure Chemical Corporation) to evaluate the cholesterol excretion promoting activity of 10-hydroxypalmitic acid (n =3).

The test system is the same in test [3]. Kind of test: Cholesterol excretion promoting activity in an inflammation-induced state, fluorometry (Amplex Red). The test is classed as cell-based. The settings on record: for Cholesterol excretion level (Average # standard deviation): DMSO-control = 1, n=4. Here is the method:
Human macrophage-like THP-1 cells were seeded in a 24-well plate so as to be 1.0×10^6 cells/well, and allowed to differentiate for 72 hours. The medium was then replaced with RPMI 1640 medium containing: 0.02% by mass of bovine serum albumin (BSA); either dimethyl sulfoxide (DMSO) or 20 μg/mL of 10-hydroxypalmitic acid; and either 50 μg/mL of oxidized LDL (oxLDL) (Invitrogen), 50 μg/mL of acetylated LDL (acLDL) (Invitrogen), 5 μM of T0901317+5 μM of 9-cis-retinoic acid (T0+RA), or 1 μg/mL of LPS (Sigma), or replaced with RPMI 1640 medium (control) containing: 0.02% by mass of BSA; and either DMSO or 20 μg/mL 10-hydroxypalmitic acid, but not containing any of oxLDL, acLDL, T0+RA, and LPS, and the macrophage-like cells were cultured for 24 hours to induce inflammation. The medium was then replaced with Dulbecco's Modified Eagle Medium (DMEM) containing 0.02% by mass of BSA and 6 mM of sodium taurocholate, and the cells were cultured for 4 hours. The medium was then recovered, and the level of cholesterol excreted from the cells (the cholesterol level in the recovered medium) was measured by fluorometry using Amplex Red to evaluate the cholesterol excretion promoting activity of 10-hydroxypalmitic acid in an inflammation-induced state (n=4).

A further test has as its system IL-1. Kind of test: IL-1 mRNA expression level by real-time PCR in THP-1 cells with or without inflammation induction. The test is classed as cell-based, Human. Particulars: 24 h, DMSO-control = 1. The protocol: (§1) Human macrophage-like THP-1 cells were seeded in a 24-well plate so as to be 1.0×10^6 cells/well, and allowed to differentiate for 72 hours. The medium was then replaced with RPMI 1640 medium containing: 0.02% by mass of bovine serum albumin (BSA); either dimethyl sulfoxide (DMSO) or 20 μg/mL of 10-hydroxypalmitic acid; and either 50 μg/mL of oxidized LDL (oxLDL) (Invitrogen), 50 μg/mL of acetylated LDL (acLDL) (Invitrogen), 5 μM of T0901317+5 μM of 9-cis-retinoic acid (T0+RA), or 1 μg/mL of lipopolysaccharide (LPS) (Sigma), or replaced with RPMI 1640 medium (control) containing: 0.02% by mass of bovine serum albumin (BSA); and either DMSO or 20 μg/mL 10-hydroxypalmitic acid, but not containing any of oxLDL, acLDL, T0+RA, and LPS, and the macrophage-like cells were cultured for 24 hours to induce inflammation. The medium was then replaced with Dulbecco's Modified Eagle Medium (DMEM) containing 0.02% by mass of BSA and 6 mM of sodium taurocholate, and the cells were cultured for 4 hours. The cells were then recovered, and the mRNA expression levels of IL-1 and IL-6, which are inflammatory markers (inflammatory cytokines), were measured by real-time PCR in the same manner as in Example 6 (n=4 to 6).

Test [4] deals with ABCA1. Kind of test: ABCA1 mRNA expression level by real-time PCR in THP-1 cells. The test is classed as cell-based, Human. The settings on record: 20 μg/ml, 24 h; corrected with 18S ribosomal RNA; EtOH = 1; n=3. The protocol:
(§2) Since the cholesterol excretion promoting activity of 10-hydroxypalmitic acid was confirmed, the effect of 10-hydroxypalmitic acid on ABC transporters was evaluated. Specifically, human macrophage-like THP-1 cells were seeded in a 24-well plate so as to be 1.0×10^6 cells/well, and allowed to differentiate for 72 hours. The medium was then replaced with RPMI 1640 medium containing 0.02% by mass of bovine serum albumin (BSA), 20 μg/mL (final concentration in the well) of 10-hydroxypalmitic acid was added, the cells were cultured for 24 hours, then mRNA was extracted using RNeasy Minikit (Qiagen), reverse transcription was carried out using ReverTra Ace (Registered trademark) qPCR RT Master Mix with gDNA Remover (Toyobo), and the ABCA1 and ABCG1 mRNA expression levels were measured by real-time PCR using Thermal Cycler Dice TP800 (Takara). 18S ribosomal RNA was used as a control gene. The ABCA1 and ABCG1 mRNA expression levels were each corrected with the mRNA expression level of the control gene, and the ABC transporter expression promoting activity of 10-hydroxypalmitic acid was evaluated (n=3).

In test [5] the test system is ABCG1. Nature of the test: ABCG1 protein expression level by Western blotting in THP-1 cells. Format: cell-based, Human. Particulars: 20 μg/mL, 24 h; corrected with actin; DMSO = 1; n=3. The protocol: (§3) The ABCA1 and ABCG1 protein expression levels were evaluated. Specifically, cells cultured in the same manner as in Example 6 were recovered, SDS-PAGE and blotting were carried out using the 10% minigel shown in Table 7A and, after blocking, the protein expression levels were measured by Western blotting using a primary antibody (anti-mouse monoclonal ABCA1 (KM3110) or anti-rabbit polyclonal ABCG1 (H65) (Novus)) and anti-actin (Sigma) as a loading control (n=3). The protein expression levels were quantified with CS Analyzer 4 […]. The ABCA1 and ABCG1 protein expression levels were each corrected with the actin protein expression level.
A general note: A western blot detects proteins with antibodies after separation by electrophoresis.

The subject of test [6] is ABCG1. Nature of the test: ABCG1 mRNA expression level by real-time PCR in THP-1 cells. Format: cell-based, Human. The settings on record: 20 μg/mL, 24 h; corrected with 18S ribosomal RNA; EtOH = 1; n=3. Here is the method: as §2
(In general: Real-time PCR tracks product formation cycle by cycle.)

The test system of a further test is IL-6. Nature of the test: IL-6 mRNA expression level by real-time PCR in THP-1 cells with or without inflammation induction. Format: cell-based, Human. Particulars: 24 h, DMSO-control = 1. The protocol: as §1
Test [7] deals with ABCA1. Nature of the test: ABCA1 protein expression level by Western blotting in THP-1 cells. The test is classed as cell-based, Human. Particulars: 20 μg/mL, 24 h; corrected with actin; DMSO = 1; n=3. Here is the method:
as §3

The mark [8] stands for this setting: same manner as Example 5A, concentration not given, EtOH = 1, n=6 to 11.
Setting [9] is: 20 μg/mL with T0 + RA (5 μM each).
The mark [10] stands for this setting: 20 μg/mL, Control (no inducer), n=4 to 6.

In the case of `CCCCCCCCCCCCCCC(O)C(=O)O` (stereo not drawn) [2-Hydroxypalmitic acid, 2-hydroxypalmitic acid, reference compound], in test [1] (setting [8]), the “Cholesterol excretion level (Average ± standard deviation)” value is 0.970 ± 0.175 relative value.
Consider `CCCCCCCCCCCCCC(O)CC(=O)O` (stereo not drawn) [3-Hydroxypalmitic acid, 3-hydroxypalmitic acid, reference compound], for which, in test [1] (setting [8]), the “Cholesterol excretion level (Average ± standard deviation)” value was 1.094 ± 0.271 relative value.
For the molecule `CCCCCCC(O)CCCCCCCCC(=O)O` (stereo not drawn) [10-hydroxypalmitic acid], the “Cholesterol excretion level (Average ± standard deviation)” value in test [1] (10 μg/mL, 24 h, DMSO = 1, n=3) turned out to be 1.553 ± 0.102 relative value; in test [1] (20 μg/mL, 24 h, DMSO = 1, n=3) it was 1.685 ± 0.138 relative value; in test [1] (30 μg/mL, 24 h, DMSO = 1, n=3), 2.313 ± 0.479 relative value; in test [1] (40 μg/mL, 24 h, DMSO = 1, n=3) it was 1.872 ± 0.374 relative value; in test [1] (setting [8]) it was 1.331 ± 0.500 relative value; in test [2] (20 μg/mL, 24 h, DMSO = 1, n=3) it was 1.569 ± 0.317 relative value. The “cholesterol excretion promoting activity (in words)” value in test [1] is “concentration-dependent cholesterol excretion promoting activity; also recorded: had a cholesterol excretion promoting activity”; in test [2] (conclusion from Table 5B), “confirmed”; in test [3] (inflammation-induced state or ABC transporters induced by T0+RA, conclusion from Table 10), “had a cholesterol excretion promoting activity”. In addition, the “Cholesterol excretion level (Average # standard deviation)” value in test [3] (20 μg/mL with 1 μg/mL LPS) is reported as 9.320 ± 3.477 relative value; in test [3] (20 μg/mL with 50 μg/mL acLDL), 1.821 ± 0.426 relative value; in test [3] (20 μg/mL with 50 μg/mL oxLDL), 2.389 ± 0.628 relative value; in test [3] (setting [9]), 33.159 ± 10.920 relative value; in [3] (20 μg/mL, Control (no inducer)), 3.588 ± 1.302 relative value. Further, the “IL-1 mRNA expression level (Average ± standard deviation)” value came to 0.450 ± 0.390 relative value in the test with IL-1 (20 μg/mL with 1 μg/mL LPS); 0.389 ± 0.067 relative value in the test with IL-1 (20 μg/mL with 50 μg/mL acLDL); 0.419 ± 0.184 relative value with IL-1 (20 μg/mL with 50 μg/mL oxLDL); 0.185 ± 0.059 relative value in the test on IL-1 (setting [9]); 0.200 ± 0.046 relative value in the test on IL-1 (setting [10]). In the test with ABCA1 [4], the “ABCA1 mRNA expression level (Average ± standard deviation)” value turned out to be 2.870 ± 0.267 relative value. Further, in the test on ABCG1 [5], the “ABCG1 protein expression level (Average ± standard deviation)” value came to 2.541 ± 0.815 relative value. In the test on ABCG1 [6], the “ABCG1 mRNA expression level (Average ± standard deviation)” value was found to be 2.953 ± 0.195 relative value. The “IL-6 mRNA expression level (Average ± standard deviation)” value in the test on IL-6 (20 μg/mL with 1 μg/mL LPS) stood at 0.530 ± 0.107 relative value; in the test with IL-6 (20 μg/mL with 50 μg/mL acLDL), 0.363 ± 0.149 relative value; in the test on IL-6 (20 μg/mL with 50 μg/mL oxLDL), 0.167 ± 0.029 relative value; with IL-6 (setting [9]), 0.095 ± 0.050 relative value; in the test with IL-6 (setting [10]), 0.104 ± 0.032 relative value. Also, the “ABCA1 protein expression level (Average ± standard deviation)” value with ABCA1 [7] came to 2.607 ± 0.559 relative value.
As to `O=C(O)CCCCCCCCCCCCCCCO` [16-hydroxypalmitic acid], in test [1], the “cholesterol excretion promoting activity (in words)” value is on record as “had a cholesterol excretion promoting activity”. For the same molecule, the “Cholesterol excretion level (Average ± standard deviation)” value in test [1] (setting [8]) stood at 1.406 ± 0.982 relative value.
Take `CCCCCCCCCCCCCCCC(=O)O` [Palmitic acid, palmitic acid, reference compound]: in test [1] (setting [8]), the “Cholesterol excretion level (Average ± standard deviation)” value amounted to 0.823 ± 0.268 relative value.
